Data as given in patent publication US12589229B2, “Macroporous solid hard microneedles with embedded particulate drugs” (priority 2021, dated 2026).
Counter-ions that a name gives are not always drawn.

Tests used:
[1] = FTIR spectroscopy of drug encapsulated in resin microneedles (changes during fabrication); type: physicochemical; conditions: drug encapsulated in cured resin microneedle vs powder
From the text: FTIR spectroscopy was used to evaluate possible changes in the encapsulated drugs during the fabrication process. A Nicolet 6700 (ThermoScientific™; Waltham, MA, USA) with a Smart™ iTX ATR accessory having a diamond crystal was used. […] In FTIR, an increase in the peak intensity usually reflects an increase in the amount (per unit volume) of the functional group associated with the molecular bond, whereas a shift in peak position usually reflects a change in the hybridization state or electron distribution in the molecular bond. […] The peaks at 1721 cm^−1 and 3400 cm^−1 are assigned to the stretching vibrations of C═O and O—H, respectively.

[2] = test system: CD20+ cells; experiment: In vitro whole blood assay with RTX-loaded microneedle patches, flow cytometry; type: cell-based, human
Description: To evaluate the effectiveness of the treatment being delivered through microneedles an in vitro model, a whole blood assay was performed using Rituximab (RTX) as the drug. Rituximab is a chimeric monoclonal antibody against the protein CD20, which is primarily found on the surface of immune system B cells. When it binds to this protein it triggers cell death via Complement-Dependent Cytotoxicity (CDC). RTX is a good model to evaluate the mAb delivery mechanism mainly because of its clear pharmacodynamics outcome, the depletion of CD20+B-Cell in whole blood. Microneedle patches with five different amounts of RTX and a constant polymer-to-drug ratio were incubated in freshly collected human blood in a 24-well plate. Flow cytometry was used to quantify CD20+ and CD19+ cells in each well. […] CD20+ cells are present in samples (a) through (c) on the left but absent from samples (d) through (f) on the right. The conditions are as follows: (a) Buffy coat and serum without microneedle (MN) exposure and prior to incubation; (b) Blood without MN exposure and after 4 h incubation; (c) Blood with exposure to an inert MN after incubation; (d) Blood after incubation with one MN (20 μg RTX); (e) blood after incubation with five MNs (100 μg RTX); and (f) blood after incubation with 200 MNs (4 mg RTX). […]

[3] = test system: circulating B cells; experiment: In vivo primate study, rituximab IV versus microneedle transdermal delivery, circulating B cells by flow cytometry; set-up: species or system African green monkeys; conditions: IV dosing, first week
Description: An in vivo primate study was performed to compare the systemic pharmacodynamic effect of rituximab (RTX) following intravenous (IV) delivery versus microneedle-mediated, transdermal (TD) delivery in African green monkeys. […] The pharmacodynamic effect was quantified by the measurement of circulating B cells by flow cytometry (all these graphs are generated by flow cytometry), employing rituximab as a tool compound to assess the ability of a novel microneedle formulation and delivery technology to achieve systemic bioavailability of macromolecules (e.g. monoclonal antibodies) following transdermal delivery. […] The depletion over time for the two patches is shown in FIG. 29 for 0, 1, 7, 14 and 21 days.

[4] = In vitro dye release from dye-loaded microneedle patch into parafilm-covered gelatin; type: physicochemical; conditions: 10% gelatin covered with parafilm
Description: In order to show in vitro release of the microneedles visually, a resin/dye paste was prepared. A biocompatible resin (Dental SG) from Formlabs (Somerville, MA, USA) and sulforhodamine B (SKU: 230162-5G, MilliporeSigma; Burlington, MA, USA) as dye were used. Due to the small size of the microneedles, the dye particles were ground into finer particles with smaller sizes. The encapsulation of unground and ground dye in microneedles was compared by preparing microneedles with both unground and ground sulforhodamine B particles. The unground and ground particles of the dye are shown in FIGS. 35a and 35b, respectively, and the size distribution of the unground and ground dye is shown in FIG. 35c. On average, the unground and ground dye particles had particle sizes of about 50 micrometers and 6 micrometers, respectively. […] A solid acrylic ring was added around the substrate so that the microneedle patch could be held and applied easily (see FIG. 35g). The in vitro dye release experiment is shown schematically in FIG. 35h. A 10% gelatin (gelatin from porcine skin, SKU: G2500-1KG from Millipore Sigma) solution was prepared as a model tissue and was poured in a petri dish. Then, it was placed in the refrigerator for 20 minutes to further solidify. A thin layer of parafilm (Parafilm ° M, Amcor; Zurich, Switzerland) was then used as a skin model to cover the gelatin solution in the petri dish.

Molecule: CCN(CC)CC(=O)Nc1c(C)cccc1C [lidocaine, lidocaine hydrochloride monohydrate]
- chemical structure during the fabrication process (FTIR) [1]: remained unchanged

Molecule: Rituximab
- activity of RTX after completion of the microneedle patch manufacturing process [2]: preserved
- B-cell depletion in blood [3]: most significant B-cell depletion

Molecule: CC(C)Cc1ccc(C(C)C(=O)[O-])cc1.[Na+] (centres unmarked) [ibuprofen, ibuprofen sodium salt]
- chemical structure during the fabrication process (FTIR) [1]: remained unchanged

Molecule: CCN(CC)c1ccc2c(-c3ccc(S(=O)(=O)O)cc3S(=O)(=O)[O-])c3ccc(=[N+](CC)CC)cc-3oc2c1 [sulforhodamine B]
- release of the dye into the gelatin solution [4]: visible release
